Literature values in patent US5629294A, “Compositions and methods for preventing adhesion formation” (University of Southern California, priority 1994, dated 1997).

Legend:
[1] = system: platelet aggregation in response to ADP and collagen
[2] = system: platelet accumulation associated with the administration of a collagen substrate and ADP; conditions: baboon model, RGDV given at 0.35, 0.68 or 1.31 μmol/min

RGDV
concentration necessary to effectively abolish platelet aggregation [1]: 100 µM
platelet accumulation [2]: dose-dependent reduction in platelet accumulation
